In patent US20250018014A1, “METHOD FOR TREATING AND/OR PREVENTING REGNASE-1-RELATED DISEASE” (OSAKA UNIVERSITY, priority 2018, published 2025):
Residues, ends and D or L forms follow the SMILES beside them.

Experiments:
[1] = molecular target: T1, binding between IKKβ and full-length Regnase-1 (FL_Reg1) (Homo sapiens, UniProt Q5D1E8); test: Inhibition of kinase-Regnase-1 binding by the compounds (AlphaScreen), IKKβ; conditions: Table 14; binding between IKKβ and Regnase-1; read-out: Binding inhibition FL_Reg1, 50% inhibition concentration (IKKβ)
T1 construct: made in house; host or cells: Expi293 cells
T1 sequence (Q5D1E8 1-599): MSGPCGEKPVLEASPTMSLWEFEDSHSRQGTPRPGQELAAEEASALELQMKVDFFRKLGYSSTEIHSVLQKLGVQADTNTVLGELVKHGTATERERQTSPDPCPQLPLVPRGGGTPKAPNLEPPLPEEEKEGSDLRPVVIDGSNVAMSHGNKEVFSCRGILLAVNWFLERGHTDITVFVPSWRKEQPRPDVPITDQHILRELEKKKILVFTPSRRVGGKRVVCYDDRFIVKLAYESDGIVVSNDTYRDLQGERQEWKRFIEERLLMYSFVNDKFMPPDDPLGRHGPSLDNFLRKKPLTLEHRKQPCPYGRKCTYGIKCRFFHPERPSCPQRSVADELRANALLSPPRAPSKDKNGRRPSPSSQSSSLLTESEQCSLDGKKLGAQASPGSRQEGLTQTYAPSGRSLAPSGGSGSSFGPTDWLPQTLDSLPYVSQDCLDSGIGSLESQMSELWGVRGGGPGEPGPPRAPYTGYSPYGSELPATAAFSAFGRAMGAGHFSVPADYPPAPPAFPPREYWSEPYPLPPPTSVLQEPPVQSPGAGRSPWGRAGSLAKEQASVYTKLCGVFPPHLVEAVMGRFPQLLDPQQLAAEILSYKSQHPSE
Procedure: (§1) As a target protein, a construct having a FLAG tag on the N-terminal side and a recognition sequence for biotin ligase BirA on the C-terminal side of the full-length sequence of human Regnase-1 (UniProt ID: Q5D1E8) was prepared (FL_Reg1). The above-mentioned Regnase-1 was expressed in mammalian Expi293 cells, purified with FLAG M2 agarose, and isolated by gel filtration chromatography. When biotinylation was required, methods from nonpatent documents (BMC biotechnology, 2008,8,41; and Protein Science, 1999,8,921-929) were used.
(§2) After mixing 2.5 nM of the above-mentioned Regnase-1 and the compound, 2.5 nM of IKKβ or TBK1 was added and reacted at room temperature for two hours. Then, Anti FLAG AlphaLISA Acceptor Beads (manufactured by PerkinElmer) and Glutathione-coated AlphaScreen Donor Beads (manufactured by PerkinElmer) were added, and excited luminescence was measured using En Vision (manufactured by PerkinElmer). As the results, the inhibition rate from the signals obtained when adding the compound at each concentration were calculated, by defining the signal obtained with Regnase-1 alone to be 100% inhibition rate, and the signal obtained when the same amount of solvent (DMSO) is added in place of the compound as 0% inhibition rate. The 50% inhibition concentration (μM) was calculated from the obtained dose response curve (Table 12).

[2] = molecular target: T2, binding between TBK1 and full-length Regnase-1 (FL_Reg1) (Homo sapiens, UniProt Q5D1E8); test: Inhibition of kinase-Regnase-1 binding by the compounds (AlphaScreen), TBK1; conditions: Table 13; binding between TBK1 and Regnase-1; read-out: Binding inhibition FL_Reg1, 50% inhibition concentration (TBK1)
T2 construct: made in house; host or cells: Expi293 cells
T2 sequence (Q5D1E8 1-599): T1 sequence (Q5D1E8 1-599)
Procedure: as §1, §2

[3] = molecular target: T3, FL_Reg1 (full-length human Regnase-1) phosphorylation by IKKβ (Homo sapiens, UniProt Q5D1E8); test: Regnase-1 phosphorylation inhibition by compounds (AlphaScreen), IKKβ, full-length Regnase-1; format: biochemical; conditions: Table 14; phosphorylation by IKKβ; read-out: Phosphorylation inhibition FL_Reg1, 50% inhibition concentration (IKKβ)
T3 construct: made in house; host or cells: Expi293 cells
T3 sequence (Q5D1E8 1-599): T1 sequence (Q5D1E8 1-599)
Excerpt: as §1, with “The full-length sequence of human Regnase-1 (UniProt ID: Q5D1E8) was used to prepare” for “As a target protein,”, “(FL_Reg1) as a target protein.” for “of the full-length sequence of human Regnase-1 (UniProt ID: Q5D1E8) was prepared (FL_Reg1).”, “used. […]” for “used.”
(§3) Using Kinase assay buffer III (manufactured by SignalChem) supplemented with 2 mM DTT, 100 μM sodium vanadate, and 2 mM manganese chloride, kinase (IKKβ (manufactured by SignalChem) or TBK1 (manufactured by SignalChem)) and Regnase-1 were reacted in the presence of 10 μM ATP at room temperature for 2 hours to perform a phosphorylation reaction.
(§4) Phosphorylated Regnase-1 was detected by the AlphaScreen system. After each of the above-mentioned phosphorylated Regnase-1 antibodies was added and reacted at room temperature for one hour, anti-FLAG AlphaLISA Acceptor Beads (manufactured by PerkinElmer) and Protein A AlphaScreen Donor Beads (manufactured by PerkinElmer) were added, and EnVision (manufactured by PerkinElmer) was used to measure the excited luminescence. As a result, phosphorylated Regnase-1 produced by the phosphorylation reaction by kinase was specifically detected, and signals were confirmed to be enhanced in a manner dependent on Regnase-1 and kinase concentrations (FIG. 24).
(§5) After mixing 2 nM of the above-mentioned Regnase-1 and the compound, phosphorylated Regnase-1 produced by the phosphorylation reaction was detected by the AlphaScreen system. As the results, the inhibition rate was calculated from the signals obtained when adding the compound at each concentration, by defining the signal obtained with Regnase-1 alone to be 100% inhibition rate, and the signal obtained when the same amount of solvent (DMSO) is added in place of the compound as 0% inhibition rate. The 50% inhibition concentration (μM) was calculated from the obtained dose response curve (Table 11).

[4] = molecular target: T4, Reg1_301-599 (amino acids 301-599 of human Regnase-1) phosphorylation by IKKβ (Homo sapiens, UniProt Q5D1E8); test: Regnase-1 phosphorylation inhibition by compounds (AlphaScreen), IKKβ, C-terminal Regnase-1; format: biochemical; conditions: Table 14, read-out: Phosphorylation inhibition Reg1_301-599, 50% inhibition concentration (IKKβ)
T4 construct: made in house; host or cells: Expi293 cells
T4 sequence (Q5D1E8 301-599): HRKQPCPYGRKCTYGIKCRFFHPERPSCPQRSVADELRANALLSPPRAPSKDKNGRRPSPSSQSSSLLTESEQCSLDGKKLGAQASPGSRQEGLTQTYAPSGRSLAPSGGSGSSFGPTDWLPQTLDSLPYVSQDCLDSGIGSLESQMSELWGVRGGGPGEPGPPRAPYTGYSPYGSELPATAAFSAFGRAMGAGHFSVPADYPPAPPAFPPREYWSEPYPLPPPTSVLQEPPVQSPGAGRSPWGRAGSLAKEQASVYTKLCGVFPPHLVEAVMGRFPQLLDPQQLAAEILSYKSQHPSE
Excerpt: as §1, with “The full-length sequence of human Regnase-1 (UniProt ID: Q5D1E8) was used to prepare” for “As a target protein,”, “(FL_Reg1) as a target protein.” for “of the full-length sequence of human Regnase-1 (UniProt ID: Q5D1E8) was prepared (FL_Reg1).”
(§6) Among the full-length human Regnase-1 sequence, the 1st to 546th amino acid sequence was prepared and made into a construct having a FLAG tag on the N-terminal side and a biotin ligase BirA recognition sequence on the C-terminal side (herein, a Regnase-1 lacking the C-terminal domain of Regnase-1 (amino acids 547 to 599 in the case of SEQ ID NO: 2) is referred to as “ΔCTD_Reg1”. “ΔCTD_Reg1” is different from “Regnase-1ΔCTD”, which is a C-terminal domain deletion variant resulting from a frameshift mutation caused by a 1 bp deletion at codon 517, as prepared in Example 13). In addition, the sequence from amino acids 301 to 599 of the full-length human Regnase-1 sequence was designated as C-terminal Regnase-1, and a construct having a FLAG tag on the N-terminal side and a recognition sequence for biotin ligase BirA on the C-terminal side was prepared (Reg1_301-599). The above-mentioned Regnase-1 was expressed in mammalian Expi293 cells, purified with FLAG M2 agarose, and isolated by gel filtration chromatography. When biotinylation was required, methods of nonpatent documents (BMC biotechnology, 2008,8,41; and Protein Science, 1999,8,921-929) were used.
as §3, §4, §5

[5] = molecular target: T5, FL_Reg1 (full-length human Regnase-1) phosphorylation by TBK1 (Homo sapiens, UniProt Q5D1E8); test: Regnase-1 phosphorylation inhibition by compounds (AlphaScreen), TBK1, full-length Regnase-1; format: biochemical; conditions: Table 13; phosphorylation by TBK1; read-out: Phosphorylation inhibition FL_Reg1, 50% inhibition concentration (TBK1)
T5 construct: made in house; host or cells: Expi293 cells
T5 sequence (Q5D1E8 1-599): T1 sequence (Q5D1E8 1-599)
Excerpt: as §1, with “The full-length sequence of human Regnase-1 (UniProt ID: Q5D1E8) was used to prepare” for “As a target protein,”, “(FL_Reg1) as a target protein.” for “of the full-length sequence of human Regnase-1 (UniProt ID: Q5D1E8) was prepared (FL_Reg1).”, “used. […]” for “used.”
as §3, §4, §5

[6] = molecular target: T6, FL_Reg1 (Homo sapiens, UniProt Q5D1E8); test: Binding of Regnase-1 and peptide compounds (affinity mass analysis, SEC then LC/MS); conditions: 1 μM FL_Reg1, final compound concentration 1 μM, 23° C. for one hour
T6 construct: made in house; host or cells: Expi293 cells
T6 sequence (Q5D1E8 1-599): T1 sequence (Q5D1E8 1-599)
Procedure: To a 96 PP plate (Greiner bio-one, 651201) coated with lipidure (Lipidure-CM5206) (NOF CORPORATION, 71S42000001), 2 μL of Tris-Buffer (25 mM Tris-NaOH pH 8.3, 300 mM NaCl, 1 mM DTT, 1 mM EDTA, 1% DMSO) was dispensed, and then 1 mM DMSO sample was added at 20 nL each with a LABCYTE ECHO (registered trademark) acoustic dispensing system. Furthermore, 18 μL of protein prepared at 1 μM FL_Reg1 in advance using Tris-Buffer was added (final compound concentration: 1 μM), and the mixture was incubated in the dark at 23° C. for one hour. Then, to a 96-well, 400 μL, Hydrophilic PVDF 0.45 μm, Long drip (Harvard, 74-5556), 100 μL of P-2, Fine (Bio-Rad, 1504114) which had been swollen in advance was added, and conditioning was performed by centrifuging several times at 2000× G for two minutes using the buffer. Next, 20 μL of the sample after incubation was added to the conditioned 96-well, 400 μL, Hydrophilic PVDF 0.45 μm, Long drip, and SEC treatment was performed by centrifugation at 2000×G for two minutes. To the liquid from SEC, 32 μL of acetonitrile (LC/MS grade, FUJIFILM Wako Pure Chemical Industries, Ltd.) supplemented with 0.1% formic acid (LC/MS grade, 067-04531, FUJIFILM Wako Pure Chemical Industries, Ltd.) was added, and this was centrifuged at 1800×G for five minutes, and the supernatant was used as an analysis sample for LC/MS measurement. Binding to Regnase-1 was detected for all of the peptide compounds, PP1 to PP25.

[7] = molecular target: T7, Reg1_301-599 (amino acids 301-599 of human Regnase-1) phosphorylation by TBK1 (Homo sapiens, UniProt Q5D1E8); test: Regnase-1 phosphorylation inhibition by compounds (AlphaScreen), TBK1, C-terminal Regnase-1; format: biochemical; conditions: Table 13, read-out: Phosphorylation inhibition Reg1_301-599, 50% inhibition concentration (TBK1)
T7 construct: made in house; host or cells: Expi293 cells
T7 sequence (Q5D1E8 301-599): T4 sequence (Q5D1E8 301-599)
Procedure: as §6, §3, §4, §5

IC50 [1] [µM]	IC50 [2] [µM]	IC50 [3] [µM]	IC50 [4] [µM]	IC50 [5] [µM]	AS-MS ratio(%) [6] [%]	IC50 [7] [µM]	Structure (SMILES)
7.4	6.5	1.4	5.7	2.9			CC[C@H](C)[C@@H]1NC(=O)[C@H](CC(N)=O)NC(=O)[C@H](Cc2ccc(O)cc2)NC(=O)[C@H](Cc2c[nH]c3ccccc23)NC(=O)[C@H](CO)NC(=O)[C@H](CC(N)=O)NC(=O)[C@H](Cc2c[nH]c3ccccc23)NC(=O)[C@H](Cc2ccc(O)cc2)NC(=O)[C@H](CCCCN)NC(=O)[C@H](CO)NC(=O)[C@@H](C)N(C)C(=O)C[C@@H](C(=O)N2CCCC2)NC(=O)[C@H](Cc2c[nH]c3ccccc23)NC1=O [PP8] (HELM PEPTIDE1{[C[C@H](C(=O)[*:2])N(C)[*:1]].S.K.Y.W.N.S.W.Y.N.I.W.D.[C1CCN([*:1])C1]}$PEPTIDE1,PEPTIDE1,1:R1-13:R3$$$V2.0)
16.9	13.8	3.6		8.4	0.1		CC(C)[C@@H]1NC(=O)[C@H](Cc2c[nH]c3ccccc23)NC(=O)[C@H](CCCCN)NC(=O)[C@H](Cc2c[nH]c3ccccc23)NC(=O)[C@H](CCC(N)=O)NC(=O)[C@H](CCCNC(=N)N)NC(=O)[C@H](Cc2ccccc2)NC(=O)[C@H](CCCNC(=N)N)NC(=O)[C@H](C)N(C)C(=O)C[C@@H](C(=O)N2CCCC2)NC(=O)[C@@H]2CCCN2C(=O)[C@H](Cc2ccc(O)cc2)NC1=O [PP13] (HELM PEPTIDE1{[meA].R.F.R.Q.W.K.W.V.Y.P.D.[C1CCN([*:1])C1]}$PEPTIDE1,PEPTIDE1,1:R1-12:R3$$$V2.0)
20.1	7.1	1.6	6.5	3.1		6.8	CC[C@H](C)[C@@H]1NC(=O)[C@H](Cc2c[nH]c3ccccc23)NC(=O)[C@H](CO)NC(=O)[C@H](Cc2c[nH]c3ccccc23)NC(=O)[C@H](C(C)C)NC(=O)CNC(=O)[C@H](Cc2ccccc2)NC(=O)[C@H](CCCNC(=N)N)NC(=O)[C@H](C)N(C)C(=O)C[C@@H](C(=O)N2CCCC2)NC(=O)[C@@H]2CCCN2C(=O)[C@H](Cc2ccc(O)cc2)NC1=O [PP14] (HELM PEPTIDE1{[meA].R.F.G.V.W.S.W.I.Y.P.D.[C1CCN([*:1])C1]}$PEPTIDE1,PEPTIDE1,1:R1-12:R3$$$V2.0)
15.1	17.9	0.8		2.2		4.6	CC[C@H](C)[C@@H]1NC(=O)[C@H](C)NC(=O)[C@H](CCCNC(=N)N)NC(=O)[C@H](Cc2ccc(O)cc2)NC(=O)[C@H](Cc2ccc(O)cc2)NC(=O)[C@H](C)NC(=O)[C@H](CO)NC(=O)[C@H](CC(N)=O)NC(=O)[C@H](Cc2ccccc2)NC(=O)[C@H](CC(N)=O)NC(=O)[C@H](C)N(C)C(=O)C[C@@H](C(=O)N2CCCC2)NC(=O)[C@H](Cc2c[nH]c3ccccc23)NC1=O [PP7] (HELM PEPTIDE1{[meA].N.F.N.S.A.Y.Y.R.A.I.W.D.[C1CCN([*:1])C1]}$PEPTIDE1,PEPTIDE1,1:R1-13:R3$$$V2.0)
